Source: paper PMC7758879, “Tyramine Acts Downstream of Neuronal XBP-1s to Coordinate Inter-tissue UPR^ER Activation and Behavior in C. elegans” (Developmental Cell, 2020)

Molecular target: T1, OCTR-1 (Caenorhabditis elegans, UniProt Q7JP62)
T1 construct: cDNA in KSM vector, cRNA injected into Xenopus laevis oocytes; co-expressed with mouse GIRK1/GIRK2 as reporter
T1 sequence (Q7JP62 1-406): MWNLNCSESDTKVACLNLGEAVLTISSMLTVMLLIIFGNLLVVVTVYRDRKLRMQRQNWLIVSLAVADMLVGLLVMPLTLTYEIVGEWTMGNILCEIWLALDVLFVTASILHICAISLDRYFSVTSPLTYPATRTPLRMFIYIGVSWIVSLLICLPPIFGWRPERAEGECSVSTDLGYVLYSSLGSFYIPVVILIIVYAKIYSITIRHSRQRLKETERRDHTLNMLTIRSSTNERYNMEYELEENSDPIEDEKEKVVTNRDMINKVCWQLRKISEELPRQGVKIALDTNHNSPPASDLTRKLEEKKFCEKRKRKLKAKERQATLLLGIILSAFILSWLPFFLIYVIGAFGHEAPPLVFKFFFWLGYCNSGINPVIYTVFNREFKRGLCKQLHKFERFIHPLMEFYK
Experiment: two-electrode voltage clamp, GIRK1/[…] current, Xenopus oocytes
Format: cell-based

SMILES	EC50 [µM]
NC[C@H](O)c1ccc(O)cc1 [Oct, octopamine]	0.114
NCCc1ccc(O)cc1 [Tyr, tyramine]	12.9
